In paper PMC6437697 (Journal of Medicinal Chemistry, 2019):

What was measured:
Assay in all cases: KINOMEscan
Assay type in all cases: binding
Details in all cases: read-out: % control activity remaining
FRK = target: T1, FRK (Homo sapiens, UniProt P42685)
T1 construct: purchased Eurofins DiscoverX KINOMEscan

MKNK2 = target: T2, MKNK2 (Homo sapiens, UniProt Q9HBH9)
T2 construct: purchased Eurofins DiscoverX KINOMEscan

MTOR = target: T3, MTOR (Homo sapiens, UniProt P42345)
T3 construct: purchased Eurofins DiscoverX KINOMEscan

LATS1 = target: T4, LATS1 (Homo sapiens, UniProt O95835)
T4 construct: purchased Eurofins DiscoverX KINOMEscan
T4 sequence (O95835 1-1130): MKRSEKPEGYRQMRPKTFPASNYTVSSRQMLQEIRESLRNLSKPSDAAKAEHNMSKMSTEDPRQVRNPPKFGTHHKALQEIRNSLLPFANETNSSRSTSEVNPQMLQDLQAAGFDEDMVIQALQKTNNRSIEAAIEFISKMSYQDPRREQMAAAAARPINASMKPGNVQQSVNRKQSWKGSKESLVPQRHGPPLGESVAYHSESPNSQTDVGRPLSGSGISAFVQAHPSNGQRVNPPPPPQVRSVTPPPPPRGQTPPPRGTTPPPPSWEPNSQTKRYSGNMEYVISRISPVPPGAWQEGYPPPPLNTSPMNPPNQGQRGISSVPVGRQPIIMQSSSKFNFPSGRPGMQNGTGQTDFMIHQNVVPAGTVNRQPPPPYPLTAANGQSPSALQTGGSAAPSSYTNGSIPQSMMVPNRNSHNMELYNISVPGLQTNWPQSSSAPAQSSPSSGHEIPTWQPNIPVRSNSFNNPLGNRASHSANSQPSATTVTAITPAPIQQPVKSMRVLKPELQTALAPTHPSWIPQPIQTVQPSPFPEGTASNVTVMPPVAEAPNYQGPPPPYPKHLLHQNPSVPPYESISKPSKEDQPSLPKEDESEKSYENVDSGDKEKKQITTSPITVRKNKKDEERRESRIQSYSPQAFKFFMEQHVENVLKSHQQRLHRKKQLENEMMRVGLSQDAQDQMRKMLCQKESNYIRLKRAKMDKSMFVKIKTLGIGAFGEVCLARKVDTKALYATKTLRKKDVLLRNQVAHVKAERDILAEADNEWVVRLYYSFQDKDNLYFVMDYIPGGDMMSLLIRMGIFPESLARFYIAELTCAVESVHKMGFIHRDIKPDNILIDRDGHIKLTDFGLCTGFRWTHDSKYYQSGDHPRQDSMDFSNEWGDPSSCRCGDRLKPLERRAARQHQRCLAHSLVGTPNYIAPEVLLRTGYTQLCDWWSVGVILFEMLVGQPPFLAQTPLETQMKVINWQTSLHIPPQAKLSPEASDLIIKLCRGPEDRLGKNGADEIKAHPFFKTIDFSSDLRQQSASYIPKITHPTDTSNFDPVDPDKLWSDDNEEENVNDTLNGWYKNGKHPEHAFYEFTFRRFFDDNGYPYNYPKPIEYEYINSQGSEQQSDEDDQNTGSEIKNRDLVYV

MET = target: T5, MET (Homo sapiens, UniProt P08581)
T5 construct: purchased Eurofins DiscoverX KINOMEscan
T5 sequence (P08581 25-1390): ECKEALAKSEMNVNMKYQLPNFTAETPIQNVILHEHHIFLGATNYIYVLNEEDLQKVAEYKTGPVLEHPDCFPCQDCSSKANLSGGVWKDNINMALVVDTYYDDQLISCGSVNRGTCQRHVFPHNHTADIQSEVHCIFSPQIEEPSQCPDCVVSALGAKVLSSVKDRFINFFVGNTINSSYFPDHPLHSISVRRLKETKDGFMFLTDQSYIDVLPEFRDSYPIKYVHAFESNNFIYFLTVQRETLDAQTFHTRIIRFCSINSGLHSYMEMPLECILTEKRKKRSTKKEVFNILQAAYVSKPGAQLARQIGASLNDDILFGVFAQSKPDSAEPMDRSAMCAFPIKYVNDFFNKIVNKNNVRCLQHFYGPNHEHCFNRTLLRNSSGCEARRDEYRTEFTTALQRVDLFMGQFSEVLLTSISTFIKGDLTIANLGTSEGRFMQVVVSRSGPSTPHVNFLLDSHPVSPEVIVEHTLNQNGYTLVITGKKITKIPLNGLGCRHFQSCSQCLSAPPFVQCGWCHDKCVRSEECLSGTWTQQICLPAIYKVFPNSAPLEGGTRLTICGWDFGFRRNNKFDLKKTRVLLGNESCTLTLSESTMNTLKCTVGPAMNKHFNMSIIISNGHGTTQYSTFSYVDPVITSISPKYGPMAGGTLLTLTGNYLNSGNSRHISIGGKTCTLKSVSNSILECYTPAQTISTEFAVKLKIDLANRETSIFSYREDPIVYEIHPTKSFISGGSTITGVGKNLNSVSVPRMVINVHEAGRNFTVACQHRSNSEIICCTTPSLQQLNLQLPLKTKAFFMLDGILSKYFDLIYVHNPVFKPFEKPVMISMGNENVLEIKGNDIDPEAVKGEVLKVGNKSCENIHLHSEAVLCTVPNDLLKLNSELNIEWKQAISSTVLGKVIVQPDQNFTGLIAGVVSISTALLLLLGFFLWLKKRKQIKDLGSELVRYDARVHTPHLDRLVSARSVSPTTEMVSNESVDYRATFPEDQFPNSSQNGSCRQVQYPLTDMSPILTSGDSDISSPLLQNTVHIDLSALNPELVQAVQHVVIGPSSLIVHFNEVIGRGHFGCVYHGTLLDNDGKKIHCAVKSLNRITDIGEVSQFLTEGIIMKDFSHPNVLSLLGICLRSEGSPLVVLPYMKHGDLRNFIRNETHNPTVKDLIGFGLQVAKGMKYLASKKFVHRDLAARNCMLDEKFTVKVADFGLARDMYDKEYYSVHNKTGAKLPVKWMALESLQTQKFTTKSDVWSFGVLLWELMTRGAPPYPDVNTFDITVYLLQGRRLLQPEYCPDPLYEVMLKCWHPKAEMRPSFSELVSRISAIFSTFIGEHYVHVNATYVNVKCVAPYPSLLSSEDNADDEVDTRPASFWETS

YSK1 = target: T6, YSK1 (Homo sapiens, UniProt O00506)
T6 construct: purchased Eurofins DiscoverX KINOMEscan
T6 sequence (O00506 whole entry): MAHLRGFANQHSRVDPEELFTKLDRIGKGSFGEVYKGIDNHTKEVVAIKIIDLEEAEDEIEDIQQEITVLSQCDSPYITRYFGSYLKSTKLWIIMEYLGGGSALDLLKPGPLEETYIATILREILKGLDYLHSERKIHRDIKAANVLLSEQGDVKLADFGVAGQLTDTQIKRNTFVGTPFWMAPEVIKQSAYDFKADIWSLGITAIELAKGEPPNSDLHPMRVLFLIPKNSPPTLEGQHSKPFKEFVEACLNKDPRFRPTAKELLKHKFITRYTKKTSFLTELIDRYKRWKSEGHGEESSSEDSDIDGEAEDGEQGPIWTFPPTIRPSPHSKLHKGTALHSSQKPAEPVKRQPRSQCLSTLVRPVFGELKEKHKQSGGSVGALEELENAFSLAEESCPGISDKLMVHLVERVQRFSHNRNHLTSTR

PYK2 = target: T7, PYK2 (Homo sapiens, UniProt Q14289)
T7 construct: purchased Eurofins DiscoverX KINOMEscan

DCAMKL3 = target: T8, DCAMKL3 (Homo sapiens, UniProt Q9C098)
T8 construct: purchased Eurofins DiscoverX KINOMEscan
T8 sequence (Q9C098 1-648): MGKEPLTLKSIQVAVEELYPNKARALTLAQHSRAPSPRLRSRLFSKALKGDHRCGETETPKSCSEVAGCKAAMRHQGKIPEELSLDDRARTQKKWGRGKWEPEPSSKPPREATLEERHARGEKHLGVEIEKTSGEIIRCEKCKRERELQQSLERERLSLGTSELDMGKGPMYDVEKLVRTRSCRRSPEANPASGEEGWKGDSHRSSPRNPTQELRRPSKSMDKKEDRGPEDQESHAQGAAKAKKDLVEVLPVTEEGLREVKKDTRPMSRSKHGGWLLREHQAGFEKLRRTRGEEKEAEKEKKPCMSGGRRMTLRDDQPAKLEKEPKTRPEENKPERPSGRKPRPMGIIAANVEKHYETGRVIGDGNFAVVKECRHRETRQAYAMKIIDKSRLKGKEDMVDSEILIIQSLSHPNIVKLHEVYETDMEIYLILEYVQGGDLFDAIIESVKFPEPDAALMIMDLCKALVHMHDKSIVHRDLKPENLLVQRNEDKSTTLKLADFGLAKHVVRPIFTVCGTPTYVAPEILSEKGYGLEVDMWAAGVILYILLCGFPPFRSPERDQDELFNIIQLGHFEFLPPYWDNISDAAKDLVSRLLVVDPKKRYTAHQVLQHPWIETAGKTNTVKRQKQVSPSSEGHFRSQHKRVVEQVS

MRCKA = target: T9, MRCKA (Homo sapiens, UniProt Q5VT25)
T9 construct: purchased Eurofins DiscoverX KINOMEscan
T9 sequence (Q5VT25 whole entry): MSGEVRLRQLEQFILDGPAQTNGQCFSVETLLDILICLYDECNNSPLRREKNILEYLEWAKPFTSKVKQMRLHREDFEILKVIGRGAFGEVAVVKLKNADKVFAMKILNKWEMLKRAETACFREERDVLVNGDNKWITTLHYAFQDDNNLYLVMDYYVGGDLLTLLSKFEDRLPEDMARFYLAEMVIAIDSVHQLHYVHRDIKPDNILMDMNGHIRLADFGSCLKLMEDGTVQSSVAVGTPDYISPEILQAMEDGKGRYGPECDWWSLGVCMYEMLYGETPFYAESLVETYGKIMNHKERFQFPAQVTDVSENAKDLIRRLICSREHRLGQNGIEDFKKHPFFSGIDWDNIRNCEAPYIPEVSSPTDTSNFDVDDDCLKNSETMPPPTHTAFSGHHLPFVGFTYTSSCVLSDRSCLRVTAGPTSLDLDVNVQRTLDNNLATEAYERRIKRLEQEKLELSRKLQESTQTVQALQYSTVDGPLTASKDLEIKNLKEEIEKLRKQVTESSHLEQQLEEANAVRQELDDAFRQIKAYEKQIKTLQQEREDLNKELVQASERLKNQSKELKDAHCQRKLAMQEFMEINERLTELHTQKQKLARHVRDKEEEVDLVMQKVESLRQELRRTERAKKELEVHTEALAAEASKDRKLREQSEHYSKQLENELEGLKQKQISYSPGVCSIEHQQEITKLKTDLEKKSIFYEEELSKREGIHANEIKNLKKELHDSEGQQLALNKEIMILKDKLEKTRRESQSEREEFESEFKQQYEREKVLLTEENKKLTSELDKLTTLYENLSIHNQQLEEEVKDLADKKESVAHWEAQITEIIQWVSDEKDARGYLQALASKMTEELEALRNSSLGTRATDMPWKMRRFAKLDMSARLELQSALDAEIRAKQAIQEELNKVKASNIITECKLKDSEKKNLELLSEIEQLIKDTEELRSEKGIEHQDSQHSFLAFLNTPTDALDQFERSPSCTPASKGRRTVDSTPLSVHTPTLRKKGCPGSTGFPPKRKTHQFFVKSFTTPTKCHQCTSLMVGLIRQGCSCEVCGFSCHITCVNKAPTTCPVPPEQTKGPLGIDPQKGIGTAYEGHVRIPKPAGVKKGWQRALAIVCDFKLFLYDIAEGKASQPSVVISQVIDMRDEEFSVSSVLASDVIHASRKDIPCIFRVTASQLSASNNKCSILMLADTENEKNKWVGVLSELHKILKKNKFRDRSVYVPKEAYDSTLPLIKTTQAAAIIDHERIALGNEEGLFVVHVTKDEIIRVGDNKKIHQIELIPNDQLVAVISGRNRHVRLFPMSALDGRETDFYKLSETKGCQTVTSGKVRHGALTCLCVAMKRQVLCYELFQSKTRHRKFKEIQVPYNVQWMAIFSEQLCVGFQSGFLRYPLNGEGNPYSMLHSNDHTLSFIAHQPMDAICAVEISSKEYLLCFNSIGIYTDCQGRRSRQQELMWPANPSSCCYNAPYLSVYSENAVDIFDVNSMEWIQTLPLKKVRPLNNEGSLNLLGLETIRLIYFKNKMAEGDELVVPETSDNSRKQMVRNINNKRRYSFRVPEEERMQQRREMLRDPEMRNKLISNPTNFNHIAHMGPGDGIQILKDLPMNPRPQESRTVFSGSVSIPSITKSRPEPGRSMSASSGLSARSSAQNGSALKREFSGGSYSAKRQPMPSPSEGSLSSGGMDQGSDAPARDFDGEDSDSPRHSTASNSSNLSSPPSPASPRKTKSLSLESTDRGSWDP

T1 sequence (P42685 whole entry): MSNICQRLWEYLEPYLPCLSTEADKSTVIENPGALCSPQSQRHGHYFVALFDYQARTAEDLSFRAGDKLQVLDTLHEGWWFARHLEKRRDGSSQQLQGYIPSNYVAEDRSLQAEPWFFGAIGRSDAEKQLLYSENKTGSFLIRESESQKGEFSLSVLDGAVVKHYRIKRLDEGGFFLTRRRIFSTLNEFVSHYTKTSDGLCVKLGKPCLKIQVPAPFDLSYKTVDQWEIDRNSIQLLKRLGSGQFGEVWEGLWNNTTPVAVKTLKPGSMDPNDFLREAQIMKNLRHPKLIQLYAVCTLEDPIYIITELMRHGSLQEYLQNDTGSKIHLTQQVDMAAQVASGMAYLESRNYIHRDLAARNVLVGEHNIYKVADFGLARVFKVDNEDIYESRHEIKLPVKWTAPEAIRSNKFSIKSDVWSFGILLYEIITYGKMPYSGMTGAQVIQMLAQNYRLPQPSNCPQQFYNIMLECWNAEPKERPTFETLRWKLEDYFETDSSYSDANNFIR
T2 sequence (Q9HBH9 whole entry): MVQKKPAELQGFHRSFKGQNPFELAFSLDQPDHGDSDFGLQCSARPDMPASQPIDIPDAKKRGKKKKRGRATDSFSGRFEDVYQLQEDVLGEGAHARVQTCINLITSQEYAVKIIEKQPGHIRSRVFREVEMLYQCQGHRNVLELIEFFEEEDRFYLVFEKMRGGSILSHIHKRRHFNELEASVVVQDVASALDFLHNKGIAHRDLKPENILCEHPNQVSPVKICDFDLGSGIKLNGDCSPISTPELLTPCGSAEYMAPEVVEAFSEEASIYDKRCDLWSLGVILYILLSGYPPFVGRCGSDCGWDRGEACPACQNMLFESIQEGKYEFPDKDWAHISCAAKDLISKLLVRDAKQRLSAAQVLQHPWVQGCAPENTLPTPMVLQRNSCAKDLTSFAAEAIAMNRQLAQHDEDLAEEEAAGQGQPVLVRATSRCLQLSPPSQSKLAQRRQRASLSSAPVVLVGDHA

Structure (SMILES) | remaining binding at 1 µM (FRK) [%] | remaining binding at 1 µM (MKNK2) [%] | remaining binding at 1 µM (MTOR) [%] | remaining binding at 1 µM (LATS1) [%] | remaining binding at 1 µM (MET) [%] | remaining binding at 1 µM (YSK1) [%] | remaining binding at 1 µM (PYK2) [%] | remaining binding at 1 µM (DCAMKL3) [%] | remaining binding at 1 µM (MRCKA) [%]
Clc1cc(NCC2CC2)c2ncc(-c3ccc4[nH]ncc4c3)n2n1 [compound 2, 6-Chloro-N-(cyclopropylmethyl)-3-(1H-indazol-5-yl)imidazo[1,2-b]pyridazin-8-amine] | 90 | 80 | 98 | 82 | 90 | 92 | 84 | 100 | 90
O=C(CN1CCOCC1)N[C@H]1CC[C@H](Nc2cc(Cl)nn3c(-c4ccc5[nH]ncc5c4)cnc23)CC1 [compound 26] | 96 | 67 | 100 | 82 | 100 | 100 | 86 | 100 | 82
CN1CCC(CNc2cc(Cl)nn3c(-c4cc5nc(Nc6ccccc6)[nH]c5cc4F)cnc23)CC1 [compound 31, 6-Chloro-3-(6-fluoro-2-(phenylamino)-1H-benzo[d]imidazol-5-yl)-N-((1-methylpiperidin-4-yl)methyl)imidazo[1,2-b]pyridazin-8-amine] | 92 | 74 | 89 | 86 | 97 | 99 | 99 | 100 | 97
